Measurements from PubChem BioAssay (NCI).
“And” between values parts separate entries of the source, which are not always exact repeats. Equal values may be shown once.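 Grown in 96-well plates, cells were treated for 48 hours with each compound at five concentrations. Insufficient inhibition: endpoint recorded as highest concentration tested. GI50 = concentration required for 50% inhibition of growth. TGI: total growth inhibition.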

Key:
Assay in all cases: growth of human tumour cells (NCI), 48 h
[1] = system: 786-0 renal
[2] = system: ACHN renal
[3] = system: BT-549 breast
[4] = system: HT29 colon
[5] = system: MDA-MB-435
[6] = system: MDA-N
[7] = system: NCI-H23 lung
[8] = system: NCI-H460 lung
[9] = system: TK-10 renal

Row | SMILES | TGI [1] [µM] | TGI [2] [µM] | TGI [3] | TGI [4] | TGI [5] [µM] | TGI [6] [µM] | TGI [7] | TGI [8] [µM] | TGI [9] | GI50 [1] | GI50 [2] | GI50 [3] | GI50 [4] | GI50 [5] | GI50 [7] | GI50 [8] | GI50 [9]
1 | Oc1ccc(C(c2ccc(O)cc2)c2ccc(O)cc2)cc1 | 34.8 | 90.8 | 54.2 µM | 41.6 µM | 46.1 | 56 | 45.7 µM | 46.3 | 63.4 µM | – | – | – | – | – | – | – | –
2 | COc1cc(N(C)C)c(OC)cc1/C=C\c1ccnc2ccccc12 | > 10 | > 10 | > 10 µM | > 10 µM | 4.26 | 3.97 | > 10 µM | > 10 | > 10 µM | – | – | – | – | – | – | – | –
3 | [N-]=[N+]=NCCCCCC(=O)OC(C(=O)c1ccccc1)c1cccc(OCC(=O)NCCOCCOCCNC(=O)CCCC[C@@H]2SC[C@@H]3NC(=O)N[C@@H]32)c1 (stereo partly drawn) | > 100 | > 100 | 84.7 µM | > 100 µM | > 100 | – | > 100 µM | > 100 | > 100 µM | > 100 µM | > 100 µM | 26.2 µM | > 100 µM | 50.6 µM | > 100 µM | > 100 µM | > 100 µM
4 | O=C(c1ccccc1)C(CN1CCCCC1)c1ccccc1 (stereo not drawn) | 3.45 | 2.13 | 3.19 µM | 5.67 µM | 4.19 | – | 3.78 µM | 26.1 | 10.2 µM | 1.91 µM | 0.941 µM | 1.6 µM | 0.892 µM | 1.67 µM | 1.65 µM | 10.2 µM | 2.92 µM
5 | C=C1CCC2C3(C)COC(c4ccccc4)OC3CCC2(C)C1/C=C/C1=CCOC1=O (stereo not drawn) | 30 | 22 | 20.8 µM | 10.7 µM | 13.8 | – | 24.2 µM | 35.9 | 34 µM | 13 µM | 8.74 µM | 6.29 µM | 3.23 µM | 2.84 µM | 9.68 µM | 9.29 µM | 12.3 µM
6 | O=C(c1ccccc1)C1OC1c1ccc([N+](=O)[O-])cc1 (stereo not drawn) | 70.7 | > 100 | 44.3 µM | 14.5 µM | > 100 | – | 14.1 µM | 40.2 | 50.8 µM | 17.7 µM | 6.08 µM | 5.47 µM | 3.75 µM | 2.95 µM | 2.84 µM | 10 µM | 6.1 µM
7 | Clc1ccc(-c2c3c(nn2-c2ccccn2)CCc2ccccc2-3)cc1Cl | > 100 | > 100 | > 100 µM | > 100 µM | > 100 | – | > 100 µM | > 100 | > 100 µM | 85 µM | 74 µM | > 100 µM | 46.3 µM | > 100 µM | > 100 µM | > 100 µM | 65.6 µM
8 | C[n+]1c2cc(N)ccc2cc2ccc(N)cc21 | – | – | 4.05 µM [middle of 4 runs] | 2.72 µM and 13.3 µM and 3.15 µM | – | – | 4.49 µM [middle of 4 runs] | – | 9.33 µM [middle of 4 runs] | 1.33 µM [middle of 4 runs] | 1 µM [middle of 4 runs] | 1.61 µM [middle of 4 runs] | 1 µM [middle of 4 runs] | 1.62 µM [middle of 4 runs] | 1.27 µM [middle of 4 runs] | 460 nM [middle of 4 runs] | 1.43 µM [middle of 4 runs]
9 | CC(=O)C1=C(O)C=C2Oc3c(C(=O)/C=C/c4c(Cl)cccc4Cl)c(O)c(C)c(O)c3[C@]2(C)C1=O | 5.44 | 8.07 | 5.28 µM | 6.23 µM | 3.82 | – | 5.82 µM | 4.46 | 5.17 µM | 1.71 µM | 1.64 µM | 1.43 µM | 1.73 µM | 1.81 µM | 1.23 µM | 1.17 µM | 0.728 µM
10 | O=C1C=CC(=Nc2cc(Br)c(O)c(Br)c2)C=C1 | 60.6 | 46.3 | 74.8 µM | 35 µM | > 100 | – | 38.3 µM | 84.9 | > 100 µM | 23.6 µM | 18.9 µM | 16.4 µM | 18 µM | 18.9 µM | 16 µM | 27.2 µM | 32.9 µM
11 | CCN(CC)CC(O)CNc1c2ccc([N+](=O)[O-])cc2nc2cc(OC)c(OC)cc12 (stereo not drawn) | 3.88 | 2.36 | 3.85 µM | 1.2 µM | 1.42 | – | 0.705 µM | 0.669 | 9.79 µM | 0.659 µM | 0.396 µM | 1.81 µM | 0.258 µM | 0.374 µM | 0.22 µM | 0.185 µM | 1.94 µM
